The text below walks through data of patent US20240148000A1, “METHOD FOR CONTROLLING HARMFUL ARTHROPODS OR HARMFUL NEMATODES USING ZOANTHAMINE” (SUMITOMO CHEMICAL COMPANY, LIMITED, priority 2021, published 2024).

Data set [1] deals with cat flea (Ctenocephalides felis). The experiment in a line: Test Method 11: coated container contact test, cat flea adults. Format: in vivo. As to conditions: 20 mg/m^2 coated on inner face of container, after 2 days. Here is the method:
(§1) Next, Test Examples are used to show efficacy of the Present compounds on controlling harmful arthropods and harmful nematodes. The following Test Examples were carried out at 25° C. Also, the “untreated group” represents a group where the similar treatment procedure to that of the treated group except not using the test compound is done.
The test compound is dissolved into acetone containing a surfactant, then the solution is poured into a 20 mL container, the solution is coated uniformly on the inner face of the container so that the test compound will be 20 mg/m^2 and the surfactant will be 40 mg/m^2, and the container is then dried.
Ten (10) cat flea (Ctenocephalides felis) adults are released into the container, and the container is then covered with lid. After the prescribed time, the state of the cat flea is examined, and the mortality is calculated by the following equation.
(§2) Mortality (%)=(Number of dead insects/Number of tested insects)×100
The test was conducted by making the prescribed time 2 days and using each of the below-mentioned Present compounds as a test compound.

In data set [2] the test system is cotton worm (Spodoptera litura). The data set is described as follows: Test Method 1: foliar spray on cabbage seedling, cotton worm larvae. The note with it: 200 ppm, sprayed 20 mL/seedling on cabbage, third-instar larvae, after 6 days, Formulation Example 5, 25° C. Format: in vivo. How it is done: as §1
(§3) Test compound is made to a formulation according to a similar method to that described in the Formulation Example 5, and thereto is added water containing 0.03 v/v % of Shindain (registered trademark) to prepare a diluted solution containing a prescribed concentration of the test compound.
Cabbage (Brassicae oleracea) seedling (on the developmental stage of the third to fourth true leaf) is planted in a container, and the diluted solutions are sprayed to the seedling at a ratio of 20 mL/seedling. Thereafter, 10 of third-instar larvae of cotton worm (Spodoptera litura) are released. After 6 days, the number of the surviving insects is counted, and the mortality of insects is calculated by the following equation.
(§4) Mortality (%)=(1−Number of surviving insects/10)×100
The test was conducted by making the prescribed concentration 200 ppm and using each of the below-mentioned Present compounds as a test compound according to the Test Method 1.

Data set [3] relates to common house mosquito (Culex pipiens pallens) female adults. The experiment in a line: Test Method 10: coated container contact test, common house mosquito female adults. Format: in vivo. As to conditions: 10 mg/m^2 coated on inner face of container, after 1 day. How it is done: as §1
The test compound is dissolved into acetone containing a surfactant, then the solution is poured into a 20 mL container, the solution is coated uniformly on the inner face of the container so that the test compound will be 10 mg/m^2 and the surfactant will be 40 mg/m^2, and the container is then dried.
Five (5) common house mosquito (Culex pipiens pallens) female adults are released into the container, and the container is then covered with lid. After the prescribed time, the state of the common house mosquito is examined, and the mortality is calculated by the following equation.
as §2
The test was conducted by making the prescribed time 1 day and using each of the below-mentioned Present compounds as a test compound.

The subject of data set [4] is southern root-knot nematodes (Meloidogyne incognita). The data set is described as follows: Test Example 12: tomato seedlings in soil contaminated with southern root-knot nematodes. Format: in vivo. The note with it: 60 mg in 60 mL: 20 mL mixed with 400 mL contaminated soil, 40 mL irrigated; tomato roots after 28 days; untreated group 5. How it is done: as §1
The Present compound 1 or 2 (60 mg) was dissolved into acetone (600 μL) containing 5% of Tween 20, and then thereto was added water to prepare a solution (60 mL).
The solution (20 mL) and soil (400 mL) contaminated with southern root-knot nematodes (Meloidogyne incognita) were mixed, and roots of healthy tomato (Lycopersicon esculentum) seedlings (third to fourth leaf stage) were transferred to the soil. Shortly after the transfer, the remaining solution (40 mL) was irrigated to the soil of the tomato seedlings.
After 28 days, the roots were pulled out of the soil, washed with water, and the degree of root damage (degree of root-knot) was investigated according to the Zeck's root-knot index (Zeck, W. M. (1971): Pflanzenschutz-Nachichten. Bayer AG, 24, 141-144.).
• 0: No root-knot is observed. • 1: Several small root-knots can be recognized by careful observation. • 2: Several small root-knots similar to 1 can be easily identified. • 3: There are many small root-knots, and some of which are fused. […]

Data set [5] concerns diamondback moth (Plutella xylostella). The data set is described as follows: Test Method 2: foliar spray on cabbage seedling, diamondback moth larvae. As to conditions: third-instar larvae, after 6 days. Format: in vivo. Here is the method: as §1, §3
Cabbage (Brassicae oleracea) seedling (on the developmental stage of the third to fourth true leaf) is planted in a container, and the diluted solutions are sprayed to the seedling at a ratio of 20 mL/seedling. Thereafter, 10 of third-instar larvae of diamondback moth (Plutella xylostella) are released to the container. After 6 days, the number of the surviving insects is counted, and the mortality of insects is calculated by the following equation.
as §4
The test was conducted by making the prescribed concentration 200 ppm and using each of the below-mentioned Present compounds as a test compound according to the Test Method 2.
The test was conducted by making the prescribed concentration 500 ppm and using the below-mentioned Present compound as a test compound according to the Test Method 2 except for formulating it according to the Formulation Example 1 instead of the Formulation Example 5.

Data set [6] has as its system brown planthoppers (Nilaparvata lugens). The data set is described as follows: Test Method 5: foliar spray on rice seedling, brown planthoppers. The note with it: 200 ppm, sprayed 10 mL/seedling on rice, third-instar larvae, after 6 days. Format: in vivo. How it is done:
as §1
The test compound is made to a formulation according to a similar method to that described in the Formulation Example 5, and thereto is added water containing 0.03 v/v % of Shindain (registered trademark) to prepare a diluted solution containing a prescribed concentration of the test compound.
Rice (Oryza sativa) seedling (on the developmental stage of the second true leaf) is planted in a container, and the diluted solutions are sprayed to the seedling at a ratio of 10 mL/seedling. Thereafter, 20 of third-instar larvae of brown planthoppers (Nilaparvata lugens) are released onto the rice seedling. After 6 days, the number of the surviving insects is examined and the mortality of insects is calculated by the following equation.
Mortality={1−Number of surviving insects/20}×100
The test was conducted by making the prescribed concentration 200 ppm and using each of the below-mentioned Present compounds as a test compound according to the Test Method 5.

Data set [7] has as its system common house mosquito (Culex pipiens pallens) last instar larvae. The data set is described as follows: Test Method 9: common house mosquito larvae in diluted solution. Format: in vivo. As to conditions: 3.5 ppm in water, Formulation Example 1, last instar larvae, after 1 day. How it is done:
as §1
The test compound is made to a formulation according to a similar method to that described in the Formulation Example 1, and thereto is added water to prepare a diluted solution containing a prescribed concentration of the test compound.
Into the diluted solution, 30 last instar larvae of common house mosquito (Culex pipiens pallens) are released, and after 1 day, the state of the common house mosquito larvae is examined, and the mortality of insects is calculated by the following equation.
as §2
The test was conducted by making the prescribed concentration 3.5 ppm and using each of the below-mentioned Present compounds as a test compound according to the Test Method 9.

The subject of data set [8] is P388 mouse leukemia cells. As to conditions: Nonpatent Document 2; cited from earlier work.
Setting [9] is: 200 ppm, sprayed 20 mL/seedling on cabbage, Formulation Example 5, 25° C.

As to `CC1=CC(=O)[C@H]2CC(=O)[C@H]3[C@@](C)(C[C@@]45OC(=O)C[C@]3(C)[C@]4(C)CC[C@]34C[C@@H](C)C[C@H](CN35)O4)[C@@H]2C1` [compound 1], the mortality in data set [1], in data set [2], in data set [3], in data set [5] (setting [9]), in data set [6] and in data set [7] was 100% each time. In addition, in data set [4], the “root-knot index (Zeck's root-knot index)” value is reported as 2 (Several small root-knots similar to 1 can be easily identified.).
For the compound `CC1=CC(=O)[C@@H]2[C@@H](C1)[C@]1(C)C[C@@]34OC(=O)C[C@@](C)([C@H]1C(=O)[C@@H]2C)[C@]3(C)CC[C@]12C[C@@H](C)C[C@H](CN14)O2` [compound 2], the mortality in data set [1], in data set [2], in data set [3], in data set [5] (setting [9]), in data set [6] and in data set [7] was 100% in each case. The “root-knot index (Zeck's root-knot index)” value in data set [4] is reported as 2 (Several small root-knots similar to 1 can be easily identified.).
Regarding `CC1=CC(=O)[C@H]2CC(=O)[C@H]3[C@@](C)(C(=O)[C@@]45OC(=O)C[C@]3(C)[C@]4(C)CC[C@]34C[C@@H](C)C[C@H](CN35)O4)[C@@H]2C1` [compound 3], the mortality (as a rule, the percentage killed) in data set [7] is given as 100%.
On to `CC1=CC(=O)[C@@H]2[C@@H](C1)[C@]1(C)C(=O)[C@@]34OC(=O)C[C@@](C)([C@H]1C(=O)[C@@H]2C)[C@]3(C)CC[C@]12C[C@@H](C)C[C@H](CN14)O2` [compound 4], for which the mortality is 80% in data set [5] (500 ppm, Formulation Example 1 instead of 5, sprayed 20 mL/seedling on cabbage) and 100% in data set [7].
With `CC1=CC(=O)[C@H]2CC(=O)[C@H]3[C@@](C)(C[C@@]45OC(=O)C[C@]3(C)[C@]4(C)CC[C@]34C[C@@H](C)C[C@H](CN35)O4)[C@@H]2C1.Cl` [compound 5], the mortality in data set [2], in data set [3], in data set [5] (setting [9]) and in data set [6] was 100% in each case.
For the compound `CC1=CC(=O)[C@@H]2[C@@H](C1)[C@]1(C)C[C@@]34OC(=O)C[C@@](C)([C@H]1C(=O)[C@@H]2C)[C@]3(C)CC[C@]12C[C@@H](C)C[C@H](CN14)O2.Cl` [compound 6], the mortality in data set [2], in data set [3], in data set [5] (setting [9]) and in data set [6] was 100% throughout.
Turning to norzoanthamine [Present compound 1], in data set [8], the “growth of P388 mouse leukemia cells” value is given as “inhibits the growth”.
